Consider 15 compounds from patent US10947252B2, “Inhibitors of KEAP1-Nrf2 protein-protein interaction” (Janssen Pharmaceutica NV, priority 2018, dated 2021).

In assay [1] the test system is Glo-Response ARE-luc2P HEK293 cell line. The experiment in a line: ARE luciferase reporter cell-based assay.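 Also: luciferase signal tracks Nrf2 activation of the ARE once compounds disrupt KEAP1-Nrf2 binding, read with One-Glo reagent, DMSO serving as low control.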 The note with it: Homo sapiens, HEK293, 24 h, average of results obtained. (In general: In a reporter assay the amount or activity of a reporter protein is the signal.)
In assay [2] the target is Kelch domain of human KEAP1 (321-624 aa) (Homo sapiens (Human), UniProt Q14145). The experiment in a line: KEAP1 KELCH ThermoFluor binding assay.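 Also: Ligand-induced melting temperature shift of E. coli-expressed KEAP1 Kelch protein, Kd estimated from concentration-response curves of ΔTm.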 As to conditions: KEAP Kelch […], 1,8-ANS, pH 7.0, average of results obtained, read-out: Tf Kd. For orientation: DSF heats the sample and reads unfolding from a dye or from intrinsic fluorescence.
Chain of Kelch domain of human KEAP1 (321-624 aa) (Q14145 321-624): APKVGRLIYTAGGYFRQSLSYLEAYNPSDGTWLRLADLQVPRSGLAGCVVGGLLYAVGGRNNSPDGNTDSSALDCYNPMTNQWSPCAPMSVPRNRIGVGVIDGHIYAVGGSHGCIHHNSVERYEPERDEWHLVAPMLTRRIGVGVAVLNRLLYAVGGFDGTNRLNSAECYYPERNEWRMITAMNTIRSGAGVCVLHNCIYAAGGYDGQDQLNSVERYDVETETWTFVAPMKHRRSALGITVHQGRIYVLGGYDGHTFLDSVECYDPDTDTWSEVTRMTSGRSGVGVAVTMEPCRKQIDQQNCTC

In the case of `Cc1cnc2c(c1)S(=O)(=O)N(Cc1cc([C@@H](c3ccn4c(C(F)(F)F)nnc4c3C)C(C)(C)C(=O)O)ccc1C)CC1(CCNCC1)O2` (single isomer, unassigned) [Example 340, (*S)-2,2-Dimethyl-3-(4-methyl-3-((8′-methyl-1′,1′-dioxidospiro[piperidine-4,4′-pyrido[2,3-b][1,4,5]oxathiazepin]-2′(3′H)-yl)methyl)phenyl)-3-(8-methyl-3-(trifluoromethyl)-[1,2,4]triazolo[4,3-a]pyridin-7-yl)propanoic Acid], in assay [1], the EC50 was determined as 629 nM. The Kd in assay [2] worked out at 1.24 nM.
In assay [1], `Cc1cnc2c(c1)S(=O)(=O)N(Cc1cc([C@H](c3ccn4c(C(F)(F)F)nnc4c3C)C(C)(C)C(=O)O)ccc1C)CC1(CCNCC1)O2` (single isomer, unassigned) [Example 341, (*R)-2,2-Dimethyl-3-(4-methyl-3-((8′-methyl-1′,1′-dioxidospiro[piperidine-4,4′-pyrido[2,3-b][1,4,5]oxathiazepin]-2′(3′H)-yl)methyl)phenyl)-3-(8-methyl-3-(trifluoromethyl)-[1,2,4]triazolo[4,3-a]pyridin-7-yl)propanoic Acid] gave an EC50 of more than 20 nM. Moreover, the Kd in assay [2] came out at 18800 nM.
`Cc1cnc2c(c1)S(=O)(=O)N(Cc1cc([C@@H](c3ccn4c(C(F)(F)F)nnc4c3C)C(C)(C)C(=O)O)ccc1C)CC1(CNC1)O2` (single isomer, unassigned) [Example 342, (*S)-2,2-Dimethyl-3-(4-methyl-3-((8′-methyl-1′,1′-dioxidospiro[azetidine-3,4′-pyrido[2,3-b][1,4,5]oxathiazepin]-2′(3′H)-yl)methyl)phenyl)-3-(8-methyl-3-(trifluoromethyl)-[1,2,4]triazolo[4,3-a]pyridin-7-yl)propanoic Acid]: in assay [1], it took 5.6 nM to reach a half-maximal effect (EC50). For the same compound, the Kd in assay [2] was less than 1 nM.
For the compound `Cc1cnc2c(c1)S(=O)(=O)N(Cc1cc([C@H](c3ccn4c(C(F)(F)F)nnc4c3C)C(C)(C)C(=O)O)ccc1C)CC1(CNC1)O2` (single isomer, unassigned) [Example 343, (*R)-2,2-Dimethyl-3-(4-methyl-3-((8′-methyl-1′,1′-dioxidospiro[azetidine-3,4′-pyrido[2,3-b][1,4,5]oxathiazepin]-2′(3′H)-yl)methyl)phenyl)-3-(8-methyl-3-(trifluoromethyl)-[1,2,4]triazolo[4,3-a]pyridin-7-yl)propanoic Acid], in assay [1], a half-maximal response (EC50) required 1570 nM. Moreover, in assay [2], the Kd was 32200 nM.
In the case of `Cc1ccc([C@@H](c2ccn3c(C(F)F)nnc3c2C)C(C)(C)C(=O)O)nc1CN1CC2(CCOCC2)Oc2nc(OCCN3CCCCC3)c(C)cc2S1(=O)=O` (single isomer, unassigned) [Example 354, (*S)-3-(3-(Difluoromethyl)-8-methyl-[1,2,4]triazolo[4,3-a]pyridin-7-yl)-2,2-dimethyl-3-(5-methyl-6-((8′-methyl-1′,1′-dioxido-7′-(2-(piperidin-1-yl)ethoxy)-2,3,5,6-tetrahydrospiro[pyran-4,4′-pyrido[2,3-b][1,4,5]oxathiazepin]-2′(3′H)-yl)methyl)pyridin-2-yl)propanoic Acid], the response in assay [1] was half-maximal at 20.6 nM (EC50). Also, the dissociation constant Kd in assay [2] is less than 1 nM.
In turn, `Cc1ccc([C@H](c2ccn3c(C(F)F)nnc3c2C)C(C)(C)C(=O)O)nc1CN1CC2(CCOCC2)Oc2nc(OCCN3CCCCC3)c(C)cc2S1(=O)=O` (single isomer, unassigned) [Example 355, (*R)-3-(3-(Difluoromethyl)-8-methyl-[1,2,4]triazolo[4,3-a]pyridin-7-yl)-2,2-dimethyl-3-(5-methyl-6-((8′-methyl-1′,1′-dioxido-7′-(2-(piperidin-1-yl)ethoxy)-2,3,5,6-tetrahydrospiro[pyran-4,4′-pyrido[2,3-b][1,4,5]oxathiazepin]-2′(3′H)-yl)methyl)pyridin-2-yl)propanoic Acid] yielded an EC50 in assay [1] of 1140 nM. The dissociation constant Kd in assay [2] amounted to 3070 nM.
In the same order, the values of `Cc1ccc([C@@H](c2ccn3c(C(F)F)nnc3c2C)C(C)(C)C(=O)O)nc1CN1CC2(CC2)Oc2nc(OCCN3CCCCC3)c(C)cc2S1(=O)=O` (single isomer, unassigned) [Example 356, (*S)-3-(3-(Difluoromethyl)-8-methyl-[1,2,4]triazolo[4,3-a]pyridin-7-yl)-2,2-dimethyl-3-(5-methyl-6-((8′-methyl-1′,1′-dioxido-7′-(2-(piperidin-1-yl)ethoxy)spiro[cyclopropane-1,4′-pyrido[2,3-b][1,4,5]oxathiazepin]-2′(3′H)-yl)methyl)pyridin-2-yl)propanoic Acid] are 11.8 nM and 3550 nM.
In assay [1], `Cc1ccc([C@H](c2ccn3c(C(F)F)nnc3c2C)C(C)(C)C(=O)O)nc1CN1CC2(CC2)Oc2nc(OCCN3CCCCC3)c(C)cc2S1(=O)=O` (single isomer, unassigned) [Example 357, (*R)-3-(3-(difluoromethyl)-8-methyl-[1,2,4]triazolo[4,3-a]pyridin-7-yl)-2,2-dimethyl-3-(5-methyl-6-((8′-methyl-1′,1′-dioxido-7′-(2-(piperidin-1-yl)ethoxy)spiro[cyclopropane-1,4′-pyrido[2,3-b][1,4,5]oxathiazepin]-2′(3′H)-yl)methyl)pyridin-2-yl)propanoic Acid] showed an EC50 of 452 nM. Also, the dissociation constant Kd in assay [2] is less than 1 nM.
Consider `Cc1ccc([C@@H](c2ccn3c(C(F)F)nnc3c2C)C(C)(C)C(=O)O)nc1CN1CC2(CC2)Oc2nc(OCCN3CCCC3)c(C)cc2S1(=O)=O` (single isomer, unassigned) [Example 358, (*S)-3-(3-(Difluoromethyl)-8-methyl-[1,2,4]triazolo[4,3-a]pyridin-7-yl)-2,2-dimethyl-3-(5-methyl-6-((8′-methyl-1′,1′-dioxido-7′-(2-(pyrrolidin-1-yl)ethoxy)spiro[cyclopropane-1,4′-pyrido[2,3-b][1,4,5]oxathiazepin]-2′(3′H)-yl)methyl)pyridin-2-yl)propanoic Acid], for which, in assay [1], the EC50 amounted to 23.3 nM. Further, the dissociation constant (Kd) in assay [2] came to 4460 nM.
With `Cc1ccc([C@H](c2ccn3c(C(F)F)nnc3c2C)C(C)(C)C(=O)O)nc1CN1CC2(CC2)Oc2nc(OCCN3CCCC3)c(C)cc2S1(=O)=O` (single isomer, unassigned) [Example 359, (*R)-3-(3-(Difluoromethyl)-8-methyl-[1,2,4]triazolo[4,3-a]pyridin-7-yl)-2,2-dimethyl-3-(5-methyl-6-((8′-methyl-1′,1′-dioxido-7′-(2-(pyrrolidin-1-yl)ethoxy)spiro[cyclopropane-1,4′-pyrido[2,3-b][[,4,5]oxathiazepin]-2′(3′H)-yl)methyl)pyridin-2-yl)propanoic Acid], the EC50 in assay [1] was determined as 1230 nM. Further, the Kd in assay [2] is less than 1 nM.
In the same order, the values of `Cc1ccc([C@H](c2ccn3c(C(F)(F)F)nnc3c2C)C(C)(C)C(=O)O)cc1CN1CC2(CCOCC2)Oc2nc(OCCN3CCC(F)(F)CC3)ccc2S1(=O)=O` (single isomer, unassigned) [Example 360, (*R)-3-(3-((7′-(2-(4,4-Difluoropiperidin-1-yl)ethoxy)-1′,1′-dioxido-2,3,5,6-tetrahydrospiro[pyran-4,4′-pyrido[2,3-b][1,4,5]oxathiazepin]-2′(3′H)-yl)methyl)-4-methylphenyl)-2,2-dimethyl-3-(8-methyl-3-(trifluoromethyl)-[1,2,4]triazolo[4,3-a][pyridine-7-yl)propanoic Acid] are 9.3 nM and less than 1 nM.
For `Cc1ccc([C@H](c2ccn3c(C(F)(F)F)nnc3c2C)C(C)(C)C(=O)O)cc1CN1CC2(CCOCC2)Oc2nc(NC3CC(O)C3)c(C)cc2S1(=O)=O` (single isomer, unassigned) [Example 361, (*R)-3-(3-((7′-(((1R,3R)-3-Hydroxycyclobutyl)amino)-8′-methyl-1′,1′-dioxido-2,3,5,6-tetrahydrospiro[pyran-4,4′-pyrido[2,3-b][1,4,5]oxathiazepin]-2′(3′H)-yl)methyl)-4-methylphenyl)-2,2-dimethyl-3-(8-methyl-3-(trifluoromethyl)-[1,2,4]triazolo[4,3-a]pyridine-7-yl)propanoic Acid], a half-maximal effect in assay [1] (EC50) was put at 60.4 nM. In addition, the Kd in assay [2] was less than 1 nM.
For the compound `Cc1ccc([C@H](c2ccn3c(C(F)(F)F)nnc3c2C)C(C)(C)C(=O)O)cc1CN1CC2(CCOCC2)Oc2nc(N[C@H](C)CN3CCOCC3)c(C)cc2S1(=O)=O` (single isomer, unassigned) [Example 362, (*R)-2,2-Dimethyl-3-(4-methyl-3-((8′-methyl-7′-(((R-1-morpholinopropan-2-yl)amino)-1′,1′-dioxido-2,3,5,6-tetrahydrospiro[pyran-4,4′-pyrido[2,3-b][1,4,5]oxathiazepin]-2′(3′H)-yl)methyl)phenyl)-3-(8-methyl-3-(trifluoromethyl)-[1,2,4]triazolo[4,3-a]pyridine-7-yl)propanoic Acid], in assay [1], the EC50 turned out to be 20.5 nM. Also, the dissociation constant (Kd) in assay [2] is less than 1 nM.
`Cc1ccc([C@H](c2ccn3c(C(F)(F)F)nnc3c2C)C(C)(C)C(=O)O)cc1CN1CC2(CCOCC2)Oc2nc(N[C@@H](C)CN3CCOCC3)c(C)cc2S1(=O)=O` (single isomer, unassigned) [Example 363, (*R)-2,2-Dimethyl-3-(4-methyl-3-((8′-methyl-7′-(((S-1-morpholinopropan-2-yl)amino)-1′,1′-dioxido-2,3,5,6-tetrahydrospiro[pyran-4,4′-pyrido[2,3-b][1,4,5]oxathiazepin]-2′(3′H)-yl)methyl)phenyl)-3-(8-methyl-3-(trifluoromethyl)-[1,2,4]triazolo[4,3-a]pyridine-7-yl)propanoic Acid]: in assay [1], the EC50 is 12.9 nM. Moreover, the Kd in assay [2] was less than 1 nM.
In the same order, the values of `Cc1ccc([C@H](c2ccn3c(C(F)(F)F)nnc3c2C)C(C)(C)C(=O)O)cc1CN1CC2(CCOCC2)Oc2nc(NCCN3CCOCC3)c(C)cc2S1(=O)=O` (single isomer, unassigned) [Example 365, (*R)-2,2-Dimethyl-3-(4-methyl-3-((8′-methyl-7′-((2-morpholinoethyl)amino)-1′,1′-dioxido-2,3,5,6-tetrahydrospiro[pyran-4,4′-pyrido[2,3-b][1,4,5]oxathiazepin]-2′(3′H)-yl)methyl)phenyl)-3-(8-methyl-3-(trifluoromethyl)-[1,2,4]triazolo[4,3-a]pyridine-7-yl)propanoic Acid] are 23.9 nM and less than 1 nM.

By EC50 is commonly meant the concentration giving half of the maximal effect. Read a low EC50 as a more potent agent. What is called Kd is a measure of binding affinity in units of concentration.
